pIC50: −log10 of the molar value.
What was measured:
[1] = target: T1, progesterone receptor (PR) (Homo sapiens, UniProt P06401); assay: binding to recombinantly produced progesterone receptor; conditions: recombinant receptor
T1 construct: made in house
T1 sequence (P06401 1-933): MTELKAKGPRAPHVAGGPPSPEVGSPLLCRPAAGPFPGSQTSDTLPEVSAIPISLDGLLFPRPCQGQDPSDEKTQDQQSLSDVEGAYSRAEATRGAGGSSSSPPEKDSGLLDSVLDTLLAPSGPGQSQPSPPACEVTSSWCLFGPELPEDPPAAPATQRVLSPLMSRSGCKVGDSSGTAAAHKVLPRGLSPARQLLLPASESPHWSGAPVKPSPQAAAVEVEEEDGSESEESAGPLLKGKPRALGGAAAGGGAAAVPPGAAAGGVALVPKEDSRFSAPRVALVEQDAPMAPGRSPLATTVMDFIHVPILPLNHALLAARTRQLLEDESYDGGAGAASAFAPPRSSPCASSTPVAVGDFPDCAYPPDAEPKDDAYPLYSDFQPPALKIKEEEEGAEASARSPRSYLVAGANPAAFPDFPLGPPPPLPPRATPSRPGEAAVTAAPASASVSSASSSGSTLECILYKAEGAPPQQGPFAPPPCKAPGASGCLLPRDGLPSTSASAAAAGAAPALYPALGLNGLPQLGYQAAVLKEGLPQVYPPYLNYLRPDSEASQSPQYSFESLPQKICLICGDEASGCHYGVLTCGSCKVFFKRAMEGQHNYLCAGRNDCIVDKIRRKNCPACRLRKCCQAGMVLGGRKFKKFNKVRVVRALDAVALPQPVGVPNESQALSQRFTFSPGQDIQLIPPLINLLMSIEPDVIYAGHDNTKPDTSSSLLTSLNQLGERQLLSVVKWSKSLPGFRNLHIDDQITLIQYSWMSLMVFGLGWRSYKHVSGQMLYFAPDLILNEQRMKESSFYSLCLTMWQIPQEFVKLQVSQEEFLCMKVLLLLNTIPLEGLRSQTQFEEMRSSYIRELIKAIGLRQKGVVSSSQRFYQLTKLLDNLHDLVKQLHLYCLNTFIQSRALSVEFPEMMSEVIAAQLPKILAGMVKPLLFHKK
From the text: (§1) The binding of the substances to the glucocorticoid receptor (GR) and other steroid hormone receptors (mineral corticoid receptor (MR), progesterone receptor (PR) and androgen receptor (AR)) is examined with the aid of recombinantly produced receptors. Cytosol preparations of Sf9 cells, which had been infected with recombinant baculoviruses, which code for the GR, are used for the binding studies. In comparison to reference substance [^3H]-dexamethasone, the substances show a high to very high affinity to GR. IC50(GR)=6.0 nM was thus measured for the compound from Example B7; IC50(MR), IC50(PR), IC50(AR)>1 μmol.

androgen receptor (AR) = target: T2, androgen receptor (AR) (Homo sapiens, UniProt P10275); assay: binding to recombinantly produced androgen receptor; conditions: recombinant receptor
T2 construct: made in house
T2 sequence (P10275 1-920): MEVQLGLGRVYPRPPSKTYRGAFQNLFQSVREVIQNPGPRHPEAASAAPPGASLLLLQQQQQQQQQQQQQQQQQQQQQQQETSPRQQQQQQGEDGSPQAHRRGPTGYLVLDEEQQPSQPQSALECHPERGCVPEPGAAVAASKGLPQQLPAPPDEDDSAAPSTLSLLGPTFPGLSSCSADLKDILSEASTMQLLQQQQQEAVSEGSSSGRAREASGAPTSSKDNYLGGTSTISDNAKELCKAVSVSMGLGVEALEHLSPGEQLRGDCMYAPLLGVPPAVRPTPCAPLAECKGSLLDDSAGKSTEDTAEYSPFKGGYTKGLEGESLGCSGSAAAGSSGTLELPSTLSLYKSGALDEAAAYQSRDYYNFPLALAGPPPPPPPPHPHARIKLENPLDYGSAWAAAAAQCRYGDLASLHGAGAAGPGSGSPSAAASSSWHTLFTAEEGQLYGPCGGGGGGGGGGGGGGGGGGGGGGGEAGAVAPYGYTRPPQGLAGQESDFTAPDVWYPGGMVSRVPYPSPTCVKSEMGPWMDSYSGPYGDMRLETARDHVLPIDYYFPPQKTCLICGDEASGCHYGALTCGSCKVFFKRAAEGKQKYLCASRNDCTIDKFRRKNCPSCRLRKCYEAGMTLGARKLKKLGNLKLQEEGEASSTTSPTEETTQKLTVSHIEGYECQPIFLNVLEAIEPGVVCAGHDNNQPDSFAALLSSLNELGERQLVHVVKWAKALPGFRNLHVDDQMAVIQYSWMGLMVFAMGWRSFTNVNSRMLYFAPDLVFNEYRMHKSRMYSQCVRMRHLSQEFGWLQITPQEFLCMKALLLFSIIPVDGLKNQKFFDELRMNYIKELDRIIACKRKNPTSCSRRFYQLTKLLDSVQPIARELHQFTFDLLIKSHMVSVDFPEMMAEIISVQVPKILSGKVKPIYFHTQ
From the text: as §1

[2] = test system: secretion of cytokine IL-8 in human monocyte cell line THP-1; assay: inhibition of LPS-triggered IL-8 secretion in THP-1 cells (ELISA); assay type: cell-based
Experimental: The concentration of the cytokines was determined in the supernatant by means of commercially available ELISA kits.

[3] = target: T3, mineral corticoid receptor (MR) (Homo sapiens, UniProt P08235); assay: binding to recombinantly produced mineral corticoid receptor; conditions: recombinant receptor
T3 construct: made in house
T3 sequence (P08235 1-984): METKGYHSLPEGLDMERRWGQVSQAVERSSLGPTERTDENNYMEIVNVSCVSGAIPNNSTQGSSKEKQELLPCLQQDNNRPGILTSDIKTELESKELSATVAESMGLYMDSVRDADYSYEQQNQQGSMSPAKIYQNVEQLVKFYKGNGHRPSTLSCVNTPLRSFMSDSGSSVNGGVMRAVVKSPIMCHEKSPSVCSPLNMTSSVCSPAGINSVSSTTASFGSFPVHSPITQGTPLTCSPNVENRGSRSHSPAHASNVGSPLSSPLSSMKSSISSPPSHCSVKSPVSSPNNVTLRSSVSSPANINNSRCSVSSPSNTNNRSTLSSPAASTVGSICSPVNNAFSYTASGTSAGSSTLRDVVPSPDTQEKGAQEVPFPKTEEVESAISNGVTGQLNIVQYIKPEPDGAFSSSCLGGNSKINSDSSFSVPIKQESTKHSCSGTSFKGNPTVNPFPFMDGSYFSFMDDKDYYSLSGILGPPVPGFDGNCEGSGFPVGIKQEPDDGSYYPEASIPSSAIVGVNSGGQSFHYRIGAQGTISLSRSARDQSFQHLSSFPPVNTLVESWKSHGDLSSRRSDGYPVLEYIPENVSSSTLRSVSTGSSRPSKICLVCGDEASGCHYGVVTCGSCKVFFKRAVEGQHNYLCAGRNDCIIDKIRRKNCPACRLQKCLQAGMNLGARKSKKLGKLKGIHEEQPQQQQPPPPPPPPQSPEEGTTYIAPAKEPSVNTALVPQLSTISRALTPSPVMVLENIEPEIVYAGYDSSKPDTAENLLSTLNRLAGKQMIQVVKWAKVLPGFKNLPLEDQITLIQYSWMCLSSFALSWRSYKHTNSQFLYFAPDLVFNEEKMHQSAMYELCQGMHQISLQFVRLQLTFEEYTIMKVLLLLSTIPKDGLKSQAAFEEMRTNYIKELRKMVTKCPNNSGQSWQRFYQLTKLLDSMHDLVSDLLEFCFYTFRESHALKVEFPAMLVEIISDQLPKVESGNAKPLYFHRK
From the text: as §1

[4] = target: T4, glucocorticoid receptor (GR) (Homo sapiens, UniProt P04150); assay: binding to recombinantly produced glucocorticoid receptor, Sf9 cytosol, [3H]-dexamethasone reference; conditions: recombinant GR
T4 construct: made in house; host or cells: Sf9 cells infected with recombinant baculovirus (cytosol preparation)
T4 sequence (P04150 1-777): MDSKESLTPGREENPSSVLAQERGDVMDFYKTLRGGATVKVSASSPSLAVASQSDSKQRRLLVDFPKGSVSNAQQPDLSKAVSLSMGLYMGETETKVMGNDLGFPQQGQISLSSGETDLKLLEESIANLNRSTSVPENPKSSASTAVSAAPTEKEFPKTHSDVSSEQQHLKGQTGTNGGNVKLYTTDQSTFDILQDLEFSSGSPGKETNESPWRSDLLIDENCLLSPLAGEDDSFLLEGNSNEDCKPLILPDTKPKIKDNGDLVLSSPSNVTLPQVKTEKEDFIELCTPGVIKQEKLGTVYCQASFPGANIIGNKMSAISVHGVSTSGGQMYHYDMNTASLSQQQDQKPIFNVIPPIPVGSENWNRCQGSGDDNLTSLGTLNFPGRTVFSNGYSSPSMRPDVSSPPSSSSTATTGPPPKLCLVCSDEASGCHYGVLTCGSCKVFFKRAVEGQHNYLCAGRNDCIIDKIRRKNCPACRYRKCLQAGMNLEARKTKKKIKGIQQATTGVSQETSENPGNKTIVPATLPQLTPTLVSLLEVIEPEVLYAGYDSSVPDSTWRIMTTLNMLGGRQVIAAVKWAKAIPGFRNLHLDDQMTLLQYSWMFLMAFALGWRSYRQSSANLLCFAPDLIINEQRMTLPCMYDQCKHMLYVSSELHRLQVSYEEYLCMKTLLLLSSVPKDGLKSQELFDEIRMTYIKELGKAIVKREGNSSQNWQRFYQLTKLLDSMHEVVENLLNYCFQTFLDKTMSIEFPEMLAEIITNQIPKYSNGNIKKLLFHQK
From the text: as §1

pIC50 [1]: < 6.00
pIC50 (androgen receptor (AR)): < 6.00
pIC50 ([2]; Homo sapiens, THP-1, supernatant ELISA, read-out: IC50(IL8)): 9.14
pIC50 [3]: < 6.00
pIC50 [4]: 8.22
Compound: CC(C)(CC(O)(CNc1cccc2c1cnn2-c1ccc(F)nc1)C(F)(F)F)c1cc(F)ccc1O (stereo not drawn) [Example B7, 4-(5-Fluoro-2-hydroxyphenyl)-4-methyl-1-{[1-(6-fluoropyridin-3-yl)indazol-4-yl]amino}-2-(trifluoromethyl)pentan-2-ol]
eff. relative to dexamethasone (IL-8 inhibition) ([2]; THP-1): 97%
